Experimental data from paper PMC10256634, “Comparative in vivo toxicokinetics of silver powder, nanosilver and soluble silver compounds after oral administration to rats” (Archives of Toxicology, 2023).

Experiments:
[1] = Total Ag content in tissues after 28 days repeated oral dosing (ICP-MS); type: in vivo, Sprague–Dawley rats
Text: (§1) Comparative TK data for the various test items were obtained after single doses, and repeated dose administration for 28 days. This was based on measurement of Ag levels in whole blood at various timepoints, and also total Ag content in tissues (in the repeated dose study phase). This approach facilitated a direct quantitative comparison of parameters such as bioavailability, achieved systemic exposure and the delivered Ag dose to tissues after administration of the different Ag test items. Determination of single-dose p.o. and i.v. blood-level profiles was intended to provide information on absolute bioavailability (F value). Parallel vehicle control groups were included within each phase.
Following final blood sampling, animals were euthanised using carbon dioxide asphyxiation, with subsequent exsanguination, prior to macroscopic examination for the investigation of any abnormalities. Tissues for analysis of total Ag content were obtained from animals administered the test items for 28 days. The tissue set comprised: brain (whole), bone marrow (from both femurs), small intestine (duodenum/ileum/jejenum), liver, spleen, ovaries, testes (excluding epididymides) and uterus. The luminal contents of GI tract samples were thoroughly flushed out with cold purified water. After weighing, tissues were retained frozen (− 20 °C).
Analysis occurred within the 48-day assured stability period.
All bioanalytical methods underwent validation before deployment.

[2] = Absolute bioavailability (F value) from single-dose oral and i.v. blood AUC; type: in vivo, Sprague–Dawley rats; conditions: single-dose oral vs i.v. AUC; data not shown
Method: as §1, with “All in vivo and analytical experimental segments were performed in accordance with Good Laboratory Practice standards (OECD [1998]) and the adopted TK experimental design conformed to approaches set out in OECD TG 417 ([2010]). Comparative” for “Comparative”
Animals (4 per sex/per treatment level) received test item via i.v. injection or oral gavage administration. Intravenous injection (bolus) was via the tail vein. Oral gavage administration was performed using a suitable graduated syringe and a rubber catheter. Dosing volumes for i.v. and oral administration were calculated based on the individual animal bodyweights.

[3] = Behaviour, homogeneity and stability of dosing formulations; type: physicochemical; conditions: oral: 1% MC (AgMP, AgNP) or purified water (AgAc, AgNO3); i.v.: 5% glucose or purified water
Method: Further details are provided under Supplementary information.
Polypropylene vessels and containers were used throughout preparation and storage to limit artefactual loss of Ag from adsorption onto surfaces (Sekine et al. [2015]). Vessels were pre-cleaned with a dilute nitric acid solution and then rinsed thoroughly with ultrapure water to remove contaminants. Chloride- or phosphate-containing vehicles and reagents were avoided to prevent Ag precipitation. Dosing formulations were prepared once for the single-dose administrations, and weekly for the repeated dose phase (divided into daily aliquots). […]
An extensive analytical pre-testing program was performed to fully characterize the test items and develop protocols to optimise the homogeneity and stability of dosing formulations. […] The Ag^+ fraction in the silver powder (AgMP) dosing formulations was determined to be a maximum of 0.004%. […]
To assure their accurate concentration, uniform homogeneity and physical stability, dosing formulation concentrations were analytically verified after preparation but before first administration using inductively coupled plasma mass spectrometry (ICP-MS) for determination of total Ag content. […] Samples of each formulation prepared for i.v. and single oral administration, as well as for Weeks 1 and 4 of the repeated dosing segment were analysed. […]

[4] = Toxicokinetics after single oral gavage dose, total Ag in whole blood (ICP-MS)
[5] = 28 d oral 5 mg/kg bw/d [Ag equivalent 3.25 AgAc, 3.2 AgNO3]
[6] = 28 d oral 5 mg/kg bw/d [Ag equivalent 3.25 AgAc, 3.2 AgNO3], female
[7] = 28 d oral 5 mg/kg bw/d [Ag equivalent 3.25 AgAc, 3.2 AgNO3], male
[8] = 28 d oral 175 [114 Ag] mg/kg bw/d
[9] = 28 d oral 175 [114 Ag] mg/kg bw/d, female
[10] = 28 d oral 175 [114 Ag] mg/kg bw/d, male
[11] = single oral dose 5 mg/kg bw [Ag equivalent 3.25 AgAc, 3.2 AgNO3], female
[12] = single oral dose 5 mg/kg bw [Ag equivalent 3.25 AgAc, 3.2 AgNO3], male
[13] = single oral dose 175 [114 Ag] mg/kg bw, female
[14] = single oral dose 175 [114 Ag] mg/kg bw, male
[15] = 28 d oral 125 [80 Ag] mg/kg bw/d
[16] = 28 d oral 125 [80 Ag] mg/kg bw/d, female
[17] = 28 d oral 125 [80 Ag] mg/kg bw/d, male
[18] = single oral dose 125 [80 Ag] mg/kg bw, female
[19] = single oral dose 125 [80 Ag] mg/kg bw, male

**Q.** Which results are given for CC(=O)[O-].[Ag+] [AgAc, Silver(I) acetate]?
**A.** Silver level in ovary [1, 5]: 2197 ng Ag/g tissue; Silver level in testis [1, 5]: 167 ng Ag/g tissue; Silver level in uterus [1, 5]: 188 ng Ag/g tissue; Silver level in GI tract [1, 6]: 3797 ng Ag/g tissue; Silver level in bone marrow [1, 6]: 126 ng Ag/g tissue; Silver level in brain [1, 6]: 169 ng Ag/g tissue; Silver level in liver [1, 6]: 305 ng Ag/g tissue; Silver level in spleen [1, 6]: 990 ng Ag/g tissue; Silver level in GI tract [1, 7]: 2770 ng Ag/g tissue; Silver level in bone marrow [1, 7]: 62 ng Ag/g tissue; Silver level in brain [1, 7]: 142 ng Ag/g tissue; Silver level in liver [1, 7]: 55.4 ng Ag/g tissue; Silver level in spleen [1, 7]: 283 ng Ag/g tissue; Silver level in ovary [1, 8]: 39668 ng Ag/g tissue; Silver level in testis [1, 8]: 1531 ng Ag/g tissue; Silver level in uterus [1, 8]: 11094 ng Ag/g tissue; Silver level in GI tract [1, 9]: 103814 ng Ag/g tissue; Silver level in bone marrow [1, 9]: 46761 ng Ag/g tissue; Silver level in brain [1, 9]: 1455 ng Ag/g tissue; Silver level in liver [1, 9]: 21872 ng Ag/g tissue; Silver level in spleen [1, 9]: 141560 ng Ag/g tissue; Silver level in GI tract [1, 10]: 83211 ng Ag/g tissue; Silver level in bone marrow [1, 10]: 21373 ng Ag/g tissue; Silver level in brain [1, 10]: 1458 ng Ag/g tissue; Silver level in liver [1, 10]: 22660 ng Ag/g tissue; Silver level in spleen [1, 10]: 96379 ng Ag/g tissue; Ag in tissue concentrations, comparison between test items ([1]; 28 d oral, matched 35–36 mg Ag/kg bw/d, silver acetate vs nanosilver or silver powder, nanosilver vs silver powder (except spleen of male animals), p < 0.05): significantly higher in all tissues; absolute bioavailability (F value) [2]: ≤ 5%; Behaviour in dosing vehicles [3]: Soluble up to the highest concentration of test item employed. See also Table 2; AUC0-t [4, 11]: 2360 ng·h/mL; Cmax [4, 11]: 108 ng/mL; DN AUC0-t [4, 11]: 726 (ng.h/mL)/(mg/kg bw/d); DN AUC(0–24) [4, 11]: 431 (ng.h/mL)/(mg/kg bw/d); Tmax [4, 11]: 3.5 h; t1/2 [4, 11]: 24.5 h; AUC0-t [4, 12]: 1430 ng·h/mL; Cmax [4, 12]: 71.6 ng/mL; DN AUC0-t [4, 12]: 440 (ng.h/mL)/(mg/kg bw/d); DN AUC(0–24) [4, 12]: 323 (ng.h/mL)/(mg/kg bw/d); Tmax [4, 12]: 5 h; t1/2 [4, 12]: 23.2 h; AUC0-t [4, 13]: 31,100 ng.h/mL; Cmax [4, 13]: 632 ng/mL; DN AUC0-t [4, 13]: 273 (ng.h/mL)/(mg/kg bw/d); DN AUC(0–24) [4, 13]: 87 (ng.h/mL)/(mg/kg bw/d); Tmax [4, 13]: 15.3 h; t1/2 [4, 13]: 25.5 h; AUC0-t [4, 14]: 23,300 ng.h/mL; Cmax [4, 14]: 367 ng/mL; DN AUC0-t [4, 14]: 204 (ng.h/mL)/(mg/kg bw/d); DN AUC(0–24) [4, 14]: 55 (ng.h/mL)/(mg/kg bw/d); Tmax [4, 14]: 20.3 h

**Q.** What does the source list for O=[N+]([O-])[O-].[Ag+] [AgNO3, silver(I) nitrate]?
**A.** Silver level in ovary [1, 5]: 1484 ng Ag/g tissue; Silver level in testis [1, 5]: 231 ng Ag/g tissue; Silver level in uterus [1, 5]: 145 ng Ag/g tissue; Silver level in GI tract [1, 6]: 2438 ng Ag/g tissue; Silver level in bone marrow [1, 6]: 87 ng Ag/g tissue; Silver level in brain [1, 6]: 177 ng Ag/g tissue; Silver level in liver [1, 6]: 130 ng Ag/g tissue; Silver level in spleen [1, 6]: 722 ng Ag/g tissue; Silver level in GI tract [1, 7]: 1310 ng Ag/g tissue; Silver level in bone marrow [1, 7]: 73 ng Ag/g tissue; Silver level in brain [1, 7]: 142 ng Ag/g tissue; Silver level in liver [1, 7]: 81.7 ng Ag/g tissue; Silver level in spleen [1, 7]: 404 ng Ag/g tissue; Silver level in ovary [1, 15]: 44025 ng Ag/g tissue; Silver level in testis [1, 15]: 1464 ng Ag/g tissue; Silver level in uterus [1, 15]: 22466 ng Ag/g tissue; Silver level in GI tract [1, 16]: 14798 ng Ag/g tissue; Silver level in bone marrow [1, 16]: 25200 ng Ag/g tissue; Silver level in brain [1, 16]: 1019 ng Ag/g tissue; Silver level in liver [1, 16]: 16024 ng Ag/g tissue; Silver level in spleen [1, 16]: 62335 ng Ag/g tissue; Silver level in GI tract [1, 17]: 10592 ng Ag/g tissue; Silver level in bone marrow [1, 17]: 46553 ng Ag/g tissue; Silver level in brain [1, 17]: 1091 ng Ag/g tissue; Silver level in liver [1, 17]: 28859 ng Ag/g tissue; Silver level in spleen [1, 17]: 54070 ng Ag/g tissue; absolute bioavailability (F value) [2]: ≤ 5%; Behaviour in dosing vehicles [3]: Soluble up to the highest concentration of test item employed. See also Table 2; AUC0-t [4, 11]: 4610 ng·h/mL; AUC(0–24) [4, 11]: 1740 ng·h/mL; Cmax [4, 11]: 109 ng/mL; Tmax [4, 11]: 3.25 h; t1/2 [4, 11]: 30.8 h; AUC0-t [4, 12]: 1550 ng·h/mL; AUC(0–24) [4, 12]: 994 ng·h/mL; Cmax [4, 12]: 62.5 ng/mL; Tmax [4, 12]: 2.5 h; t1/2 [4, 12]: 18.7 h; AUC0-t [4, 18]: 18,700 ng.h/mL; AUC(0–24) [4, 18]: 7670 ng·h/mL; Cmax [4, 18]: 421 ng/mL; Tmax [4, 18]: 15 h; t1/2 [4, 18]: 31.7 h; AUC0-t [4, 19]: 19,400 ng.h/mL; AUC(0–24) [4, 19]: 5970 ng·h/mL; Cmax [4, 19]: 348 ng/mL; Tmax [4, 19]: 21 h; t1/2 [4, 19]: 37.6 h
